Patent publication US11236354B2, “Glyphosate-n-acetyltransferase (GLYAT) sequences and methods of use” (PIONEER HI-BRED INTERNATIONAL, INC., priority 2013, dated 2022)
Values joined by “and” are separate entries in the source; they are usually repeats but may differ in a detail not shown here. Equal values may be shown once.

Tests used:
Assay in all cases: Substrate saturation kinetic analysis of purified GLYAT
[1] = biological target: GLYAT (glyphosate-N-acetyltransferase), parent of saturation mutagenesis (already fit protein), SEQ ID NO:26 (derived from SEQ ID NO:1 and 2) (Bacillus licheniformis, UniProt Q65LG7, A28V/C29I/D131E/E14D/E65Q/E67K/E68K/E83D/G37R/I132T/I135A/I15L/I19V/I53V/I91V/K101R/K144R/K58Q/L105M/L26I/L97I/M75V/R47G/R92K/T89S/V114A/Y130F/Y45F); assay type: biochemical
Chain of GLYAT (glyphosate-N-acetyltransferase), parent of saturation mutagenesis (already fit protein), SEQ ID NO:26 (derived from SEQ ID NO:1 and 2) (Q65LG7 entry or part of it with the stated changes): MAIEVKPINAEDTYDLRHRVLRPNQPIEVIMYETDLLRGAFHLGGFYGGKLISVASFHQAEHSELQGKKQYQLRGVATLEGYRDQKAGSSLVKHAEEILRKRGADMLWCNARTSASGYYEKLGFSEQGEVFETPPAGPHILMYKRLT
Procedure: E. coli cultures in LB or 2×YT were grown overnight at 37° C. to saturation. The cells were used as a 2% inoculum into fresh media. When OD reached 0.6, IPTG was added to 0.2 mM and growth was continued for at least 6 hours. Cells were harvested by centrifugation and stored at −80° C. Cells were lysed with BPER (Pierce) containing 1 mM dithiothreitol, 0.2 mg/ml lysozyme, 2 mg/ml protease inhibitor cocktail (Sigma bacterial cell cocktail, P8465) and endonuclease. Lysate supernatants were passed through a column of NHS-activated Agarose (Thermo, #26197) derivatized with coenzyme A. Columns were washed with 25 mM Hepes, pH 7, containing progressively higher concentrations of KCl, then eluted with 25 mM Hepes, 100 mM KCl, 10% ethylene glycol and 1 mM acetyl CoA. Purity as evaluated by polyacrylamide gel electrophoresis was deemed consistently high enough to be assumed to be 100%. Protein concentration was determined with the Bradford assay using a large-scale lot of produced GLYAT protein as standard.
Kinetic parameters for various substrates were obtained using a range of seven substrate concentrations plus a blank containing none of the varied substrate. The non-varied substrate was present at a saturating concentration. Six-microliter aliquots of 50-fold concentrated stock solutions of the varied substrate were placed in a 96-well assay plate (Greiner BioOne UV-Star). Reactions were started with the addition of 294 ul of 25 mM Hepes, pH 7.0, 100 mM KCL, 10% ethylene glycol, the non-varied substrate and 10 to 200 nM enzyme. Absorbance was monitored for one minute with a Spectramax 384 Plus plate reader (Molecular Devices). If the amino acid present at position 30 (29 if alanine is absent at position 2) was cysteine, absorbance was monitored at 235 nm, which directly detects cleavage of the sulfoester bond of acetyl CoA. If the amino acid present at position 30 (29 if alanine is absent at position 2) was isoleucine, 0.5 mM 5,5′-dithiobis-(2-nitrobenzoic acid), which reacts with the coenzyme A thiol generated in the enzyme catalyzed reaction, was included in the reaction mix and absorbance was monitored at 412 nm. Initial rates were processed by the Softmax software to obtain kinetic parameters, using the double-reciprocal transformation.
The sequences with the new substitutions were derived through a combination of saturation mutagenesis of an already fit protein (SEQ ID NO:26) and an effective screening cascade as a means of identifying the improved genes (Examples 1-2). Regions in which novel changes are concentrated include helix H2a (positions 23 and 25-29) and the hairpin formed by strands B6 and B7 (positions 124-144). These two structures are components of the amino substrate binding site. Helix H3, the backbone to which the central beta sheet is anchored, is a region where 24% of the novel substitutions (17 out of 71) disclosed in Table 4 are concentrated into 11% of the positions (16 out of 146). None of those are near enough to the active site to influence substrate specificity directly. In three cases, multiple novel substitutions were discovered immediately or nearly adjacent to conserved amino acids shown previously to contribute to the catalytic mechanism (Siehl D L et. al., J Biol Chem, 282:11446, 2007). The catalytic amino acids for which this is the case are R21, R111, H138 and the nearby positions with multiple substitutions are 23, 112 and 137. The diverse amino acids at these positions may influence the orientation of the neighboring catalytic amino acids so as to selectively optimize catalysis with the preferred substrate, glyphosate.

[2] = biological target: GLYAT (glyphosate-N-acetyltransferase), parent, SEQ ID NO:1 (Bacillus licheniformis, UniProt Q65LG7, E119R/E14D/E65Q/E67K/E68K/G37R/G38S/I132T/I135V/I15L/I19V/I53V/I91V/K101R/K144R/K58Q/L105M/L106I/L145I/L26I/L36T/L97I/M75V/R47G/R92K/T33S/T89S/V114A/Y130F/Y31F/Y45F)
Chain of GLYAT (glyphosate-N-acetyltransferase), parent, SEQ ID NO:1 (Q65LG7 entry or part of it with the stated changes): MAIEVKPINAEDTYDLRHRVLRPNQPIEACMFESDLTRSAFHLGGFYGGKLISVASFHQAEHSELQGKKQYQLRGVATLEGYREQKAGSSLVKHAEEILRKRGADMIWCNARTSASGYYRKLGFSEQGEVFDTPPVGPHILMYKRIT

[3] = biological target: GLYAT (glyphosate-N-acetyltransferase), parent, SEQ ID NO:2 (Bacillus licheniformis, UniProt Q65LG7, A28V/D131E/E119K/E63D/E65Q/E67Q/E68K/E83D/E96Q/G37R/I132T/I135V/I15L/I2L/K101R/K144R/K58Q/L105M/L97I/R18K/T89S/V114A/Y130F/Y45F); details: pH 7.0
Chain of GLYAT (glyphosate-N-acetyltransferase), parent, SEQ ID NO:2 (Q65LG7 entry or part of it with the stated changes): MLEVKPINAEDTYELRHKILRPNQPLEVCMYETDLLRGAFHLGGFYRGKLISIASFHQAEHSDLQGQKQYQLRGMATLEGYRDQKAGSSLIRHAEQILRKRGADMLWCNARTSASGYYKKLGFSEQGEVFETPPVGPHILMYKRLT

[4] = biological target: GLYAT variant SEQ ID NO:3 (derived from SEQ ID NO:1 and 2) (Bacillus licheniformis, UniProt Q65LG7, A28V/D131E/E119K/E14D/E65Q/E67K/E68K/E83D/G37R/I132T/I135V/I15L/I19V/I2L/I53V/I91V/K101R/K144R/K58Q/L105M/L106I/L26I/L97I/M75V/R47G/R92K/T89S/V114A/Y130F/Y45F); details: pH 7.0
[5] = biological target: GLYAT variant SEQ ID NO:5 (derived from SEQ ID NO:1 and 2) (Bacillus licheniformis, UniProt Q65LG7, A28V/D131E/E14D/E65Q/E67K/E68K/G37R/I132T/I135A/I15L/I19V/I53V/I91V/K101R/K144R/K58Q/L105M/L106I/L26I/L97I/M75V/R47G/R92K/T89S/V114A/Y130F/Y45F); details: pH 7.0
[6] = biological target: GLYAT variant SEQ ID NO:10 (derived from SEQ ID NO:1 and 2) (Bacillus licheniformis, UniProt Q65LG7, A28V/D131E/E14D/E65Q/E67K/E68K/G37R/G38S/H61R/I132T/I135A/I15L/I19V/I53V/I91V/K101R/K144R/K58Q/L105M/L106I/L26I/L97I/M75V/R47G/R92K/T89S/V114A/Y130F/Y45F); details: pH 7.0
[7] = pH 7.0, non-varied substrate saturating

## N[C@@H](CC(=O)O)C(=O)O [aspartate]
[1]; pH 7.0
  Asp as % of glyph (kcat/KM asp / kcat/KM glyph): 0.038%
[1]; [7]
  kcat (aspartate): 1.5 s⁻¹
  kcat/KM (aspartate): 16 M⁻¹ s⁻¹
[2]; 25 mM Hepes, pH 7.0
  kcat/KM with aspartate: 228 M⁻¹ s⁻¹
[2]; Table 5 and text, specificity (kcat/KM asp/kcat/KM glyph), listed as asp
  kcat/Km asp, % glyph: 1.3% and 1.27%
[2]; pH 7.0
  Asp as % of glyph (kcat/KM asp / kcat/KM glyph): 1.273%
[3]
  Asp as % of glyph (kcat/KM asp / kcat/KM glyph): 0.574%
[4]
  Asp as % of glyph (kcat/KM asp / kcat/KM glyph): 0.403%
[5]
  Asp as % of glyph (kcat/KM asp / kcat/KM glyph): 0.059%
[6]
  Asp as % of glyph (kcat/KM asp / kcat/KM glyph): 0.091%
